Reference: patent publication US20130184310A1, “TREATMENT OF LUPUS ARTHRITIS USING LAQUINIMOD” (Teva Pharmaceutical Industries, Ltd., priority 2010, published 2013)

How the values were obtained:
[1] = system: (NZBxNZW)F1 mouse model of SLE; settings: MTX 35 μg/mouse p.o. 3 times a week; for immune complex deposition (ICD) in kidney glomeruli: end of experiment (12 weeks) vs vehicle; for immune complex deposition (ICD) in kidney glomeruli / proteinuria (PU): laquinimod 25 mg/kg p.o. daily, CTX 25 mg/ig i.p. once weekly; for proteinuria (PU): week 12 observation vs vehicle (water)
Experimental: (NZBxNZW)F1 are lupus-prone mice that develop an SLE-like disease spontaneously including anti-dsDNA antibodies (Abs), proteinuria and Immune Complex Deposits (ICD).
In a number of studies, the effect of various doses of laquinimod in the (NZBxNZW)F1 model for SLE were assessed. The studies also included a negative control (water) and positive controls including cyclophosphamide (CTX) and methotrexate (MTX).
This study investigated the effect of laquinimod, an immunomodulator of SLE in a murine model of SLE and compared the treatment effect to reference substances CTX and MTX.
Laquinimod and reference compounds CTX and MTX were applied in therapeutic mode, starting the treatment at the time when the characteristic change of murine SLE model, proteinuria (PU) was present in >80% of animals, and the observation and treatment period following this was 12 weeks. Laquinimod was applied p.o. daily, in a dose of 25 mg/kg. CTX was applied once weekly in a dose of 25 mg/ig i.p. MTX was applied 3 times a week p.o. at 35 μg/mouse.
Also, body weight changes were recorded weekly and at the end of experiment both kidneys were preserved, one for possible conventional histology and one for immune complex detection *ICD) in glomeruli. Evaluation of ICD was performed by scoring and by image analysis.
80 animals were involved in the study.

[2] = system: MRL/lpr lupus mouse model; test: Non-GLP in vivo evaluation of laquinimod in the MRL/lpr lupus mouse model (Example 1.4); settings: for kidney glomerulonephritis (histopathology) / salivary gland inflammation (histopathological scoring): laquinimod 5 mg/kg p.o., MMF 100 mg/kg p.o., compared to vehicle
Experimental: This study evaluates the efficacy of laquinimod in the MRL/lpr lupus mouse model.
Animals were monitored until their urine proteinuria reached >200 mg/dL at which time they were enrolled in the study. Animals were dosed with either 1 or 5 mg/kg of laquinimod, p.o., 100 mg/kg mycophenolate mofetil (MMF, CellCept®) p.o., or vehicle (water DDW), p.o., daily except weekends.
Proteinuria, ankle and paw diameters, dsDNA autoantibody levels and survival were monitored during in life portion of the study. At termination, blood samples were harvested for determination of dsDNA autoantibody levels, spleens were harvested and weighed then processed to isolate splenocytes which were counted. Kidney, lung, skin, lymph node, salivary gland and joints were harvested, processed for histological examination and scored by a histopathologist blind to the treatments.

(NZBxNZW)F1 mice [3] = test: Confirmation of efficacy of laquinimod in the (NZBxNZW)F1 model for SLE, 13 weeks (Example 1.3); type: in vivo, mouse
Experimental: This study examined the effect of laquinimod (0.2 and 5 mg/kg) versus CTX and vehicle treated (NZBxNZZW)F1 mice. Seventy mice having spontaneous disease developed by the age of 7 months (as measured by proteinuria) were divided into 4 experimental groups (Water, CTX, Laquinimod 0.2 mg/kg, Laquinimod 5.0 mg/kg,) according to their PU scores. Water and Laquinimod were administered orally (200 μl/mouse) 5 days a week. CTX was administered intraperitonealy once weekly, (200 μl/mouse). Blood samples were collected on weeks 1, 5, and 11. Serum samples were prepared for detection of anti-dsDNA antibodies. After 13 weeks of treatment, mice were sacrificed and immune complex deposits in their kidneys were evaluated.

[4] = system: Systemic Lupus Erythematosus (SLE) patients with active lupus arthritis; test: Phase IIa randomized, double-blind, placebo-controlled clinical trial of laquinimod in lupus arthritis (Example 2); type: in vivo, human; settings: daily oral 0.5 mg or 1 mg
Experimental: A multicenter, randomized, double-blind, placebo controlled clinical trial is conducted to evaluate the safety, tolerability, biomarkers and clinical effect of laquinimod (0.5 mg/day and 1 mg/day) in Systemic Lupus Erythematosus (SLE) patients with active lupus arthritis.
Approximately 90 Systemic Lupus Erythematosus patients with active lupus arthritis are enrolled. (approximately 30 subjects per treatment arm). Drop-outs are not replaced.
The overall study duration is up to 20 weeks, with the screening period being up to 2 weeks, the treatment period being 12 weeks and the follow-up period being 4 weeks.
Capsules containing laquinimod 0.5 mg and/or matching placebo are administered orally once daily: • 1. Laquinimod 0.5 mg arm—1 capsule of laquinimod 0.5 mg and 1 matching placebo capsule. • 2. Laquinimod 1 mg arm—2 capsules of laquinimod 0.5 mg. • 3. Placebo arm—2 capsules of placebo.
This is a Phase IIa, randomized, double-blind, placebo-controlled, study to assess the safety, tolerability, pharmacokinetics, biomarkers and clinical effect of two doses of laquinimod in Systemic Lupus Erythematosus patients with active lupus arthritis. This study evaluates the safety, tolerability of two doses of laquinimod (0.5 mg and 1 mg/day) in Systemic Lupus Erythematosus patients with active lupus arthritis. This study also evaluates biomarkers and clinical effect of laquinimod (0.5 mg and 1 mg/day) in Systemic Lupus Erythematosus patients with active lupus arthritis.
Subjects are initially randomized in a 1:1 ratio into one of the following two treatment arms: • 1. Laquinimod 0.5 mg. • 2. Matching placebo.
Enrollment to the 1 mg laquinimod dose group is initiated following the approval of the study safety committee, based on data of at least 10 subjects who have completed at least 4 weeks of treatment. Upon approval, randomization into one of the following three treatment arms occurs in a ratio that allows for reaching an overall target enrollment of approximately 30 subjects per treatment arm. • 1. Laquinimod 0.5 mg. • 2. Laquinimod 1 mg. • 3. Matching placebo.
Scheduled in-clinic visits are conducted at screening, baseline and at weeks 2, 4, 8, 12 and 16.
Treatment with laquinimod/placebo is discontinued on visit week 12 and a follow-up/study completion visit is conducted at week 16. Subjects who early discontinued study drug prior to visit week 12 preferably attend a follow-up study completion visit within 4 weeks (28 days) of treatment termination visit.
During the study period the British Isles Lupus Assessment Group (BILAG) score, SLE Disease Activity Index (SLEDAI 2K), Swollen and Tender joint count, Patient Global Assessment score (PGA), Evaluator Global Assessment score (EGA) and Patient Pain assessment (PtP) are assessed in addition to routine safety laboratory and physical tests, PK analysis and disease related immunology tests/biomarkers.
Response Definitions • BILAG MSK response is defined as change from Musculoskeletal A or B at baseline to C or D at LOV. • BILAG Substantial Responder (SR) is defined as all systems at last observed value (LOV) are C or D/E providing at least one system is A or B at baseline. • SLEDAI 2K response—decrease in SLEDAI of at least 4 point compared to baseline • Medicinal/Interventional flare defined as any of the following • Steroid increase by at least 5 mg/day compared to previous dose or compared to baseline or any IV, IM or Intraarticular dose. • New continuous treatment (>3 days) or increase in dose of NSAIDs or COX2 inhibitors. • New treatment or dose increase with an immunosuppressive drug compared to previous dose or compared to baseline. • Treatment with biologic agents, IVIG or plasmapheresis. • New treatment or dose increase of antimalarial drugs compared to previous dose or compared to baseline.
Lupus Arthritis • 1. […]

(NZBxNZW)F1 mice [5] = test: Survival dose response study of laquinimod in the (NZBxNZW)F1 model for SLE, 37 weeks (Example 1.2); type: in vivo, mouse
Experimental: This was a survival dose response study to determine whether laquinimod is effective in suppressing the symptoms in (NZBxNZW)F1 mice. The positive control used was Cytoxan.
Seventy-one mice having spontaneous disease developed by the age of 7 months (as measured by proteinuria) were divided into 6 experimental groups (Water, CTX, Laquinimod 0.2 mg/kg, Laquinimod 1.0 mg/kg, Laquinimod 5.0 mg/kg, Laquinimod 25.0 mg/kg) according to their PU scores.
Water and Laquinimod were administered orally (200 μl/mouse) 5 days a week. CTX was administered intraperitonealy once weekly, (200 μl/mouse). Blood samples were collected on weeks 1, 5, 15 and 37. Serum samples were prepared for detection of anti-dsDNA antibodies. After 37 weeks (257 days) of treatment, mice were sacrificed.

[6] = laquinimod 5 mg/kg p.o. compared to vehicle
[7] = laquinimod low dose 0.2 mg/kg orally 5 days a week
[8] = study period, compared to placebo

In the case of `O=P1(N(CCCl)CCCl)NCCCO1` (stereo not drawn) [CTX, cyclophosphamide], the “immune complex deposition (ICD) in kidney glomeruli” value (from here on “immune complex deposition (ICD)”) [1] is reported as “significantly inhibited” and the “proteinuria (PU)” value [1] is reported as “significantly diminished the proteinuria”.
For `COc1c(C)c2c(c(O)c1C/C=C(\C)CCC(=O)OCCN1CCOCC1)C(=O)OC2` [MMF, mycophenolate mofetil, reference compound], the “lung BALT hyperplasia (histopathology)” value ([2]; MMF 100 mg/kg p.o. vs vehicle) was “significant difference”, the “kidney glomerulonephritis (histopathology)” value [2] was “significant reductions” and the “salivary gland inflammation (histopathological scoring)” value [2] was “significant reduction”.
`CN(Cc1cnc2nc(N)nc(N)c2n1)c1ccc(C(=O)N[C@@H](CCC(=O)O)C(=O)O)cc1` [MTX, methotrexate] was tested, and the “animals died during the treatment period” value ([1]; 12 week treatment period, 80 animals in study) was 2, the “immune complex deposition (ICD)” value [1] was “failed to inhibit the symptoms” and the “proteinuria (PU)” value [1] was “failed to inhibit the symptoms”.
With `CCN(C(=O)c1c(O)c2c(Cl)cccc2n(C)c1=O)c1ccccc1` [laquinimod] the “bone resorption (joint histopathology)” value ([2]; both doses of laquinimod (1 and 5 mg/kg p.o.) compared to vehicle) was “Significant reductions”, the “salivary gland inflammation score, higher dose vs lower dose” value ([2]; laquinimod 5 mg/kg compared with 1 mg/kg) was “significantly lower score” and the “cartilage damage (joint histopathology)” value [2, 6] was “significant reduction”. For the same compound, the “joint inflammation (histopathology)” value [2, 6] was “significantly reduced”, the “splenocytes as percent of total spleen cells” value [2, 6] was “significant reduction” and the “kidney glomerulonephritis (histopathology)” value [2] was “significant reductions”. For the same compound, the “salivary gland inflammation (histopathological scoring)” value [2] was “significant reduction”, the “measures during the in life phase (proteinuria, ankle and paw diameters, dsDNA autoantibody levels, survival)” value ([2]; laquinimod 1 or 5 mg/kg p.o., trends not significant except for some sporadic time points) was “trend toward dose dependent efficacy” and the anti-dsDNA levels ((NZBxNZW)F1 mice [3]; laquinimod 5 mg/kg orally 5 days a week) was “behaved similarly to the positive control CTX”. For the same compound, the “immune complex deposits in kidneys” value ((NZBxNZW)F1 mice [3]; laquinimod 5 mg/kg orally 5 days a week, after 13 weeks) was “behaved similarly to the positive control CTX”, the “disease progression as measured by proteinuria” value ((NZBxNZW)F1 mice [3]; laquinimod 0.2 and 5 mg/kg orally 5 days a week, 13 weeks) was “abrogated disease progression” and the “anti-dsDNA Ab titers” value ((NZBxNZW)F1 mice [3]; [7]) was “did not inhibit”. For the same compound, the proteinuria ((NZBxNZW)F1 mice [3]; [7]) was “prevented increased proteinuria”, the “ICD (immune complex deposits)” value ((NZBxNZW)F1 mice [3]; laquinimod low dose 0.2 mg/kg orally 5 days a week, after 13 weeks) was “did not inhibit” and the tolerability ([4]; compared to placebo) was “well tolerated”. The toxicity ([4]; compared to placebo) was “no toxicity”, the “66 swollen/68 tender joint count (JC66/68)” value ([4]; study period) was “reduces” and the “C-Reactive Protein level” value ([4]; study period) was “lowers”. The “Disease Activity Score using 28 joint counts (DAS28)” value ([4]; study period) was “reduces”, the anti-dsDNA level ([4]; study period) was “lowers” and the “physician global assessment (PGA) score” value ([4]; study period) was “reduces”. The serum chemokine level ([4]; study period) was “lowers”, the serum cytokine level ([4]; study period) was “lowers” and the “BILAG MSK response” value [4, 8] was “improves”. The BILAG score [4, 8] was “improves”, the swollen joint count [4, 8] was “reduces” and the tender joint count [4, 8] was “reduces”. The “immune complex deposition (ICD)” value [1] was “significantly inhibited”, the “proteinuria (PU)” value [1] was “significantly diminished the proteinuria” and the progression of proteinuria ((NZBxNZW)F1 mice [5]; all doses of laquinimod (0.2, 1.0, 5.0, 25.0 mg/kg) orally 5 days a week, in comparison to vehicle) was “abrogated the progression of proteinuria”. For the same compound, the survival ((NZBxNZW)F1 mice [5]; all doses of laquinimod (0.2-25 mg/kg), 37 weeks of treatment) was “significant prolongation of survival”, the proteinuria ((NZBxNZW)F1 mice [5]; laquinimod dose of 0.2 mg/kg orally 5 days a week) was “abrogated proteinuria but not to the same extent as compared to the higher doses” and the “proteinuria, compared with positive control CTX” value ((NZBxNZW)F1 mice [5]; laquinimod doses of 1, 5 and 25 mg/kg orally 5 days a week) was “as effective as the positive control cyclophosphamide (CTX)”. The anti-dsDNA levels ((NZBxNZW)F1 mice [5]; serum, weeks 1, 5, 15 and 37, laquinimod 0.2-25 mg/kg) was “dose dependent reduction in antibody levels over time”.
